This is an account of results in EP4215522A1, “DERIVATIVES OF 4-CHROMONE AS INHIBITORS OF THE RDRP POLYMERASE OF SARS-COV-2 VIRUS AND METHOD FOR THE PREPARATION THEREOF” (priority 2022, dated 2023).

Structures are written as SMILES. Read-outs that look alike come from different tables or passages of the source.

In series [1] the target is RNA-dependent RNA polymerase (SARS-CoV-2) (Severe acute respiratory syndrome coronavirus 2, UniProt P0DTD1). The series is described as follows: in vitro enzymatic assay of RdRp activity (AlphaScreen detection). It is filed as biochemical.
The nature of a further series: Kinetic solubility. In kind it is physicochemical. As for the experimental part:
(§1) The solubility and stability of some compounds of the invention and known compounds were evaluated.

A short description of series [2]: Microsomal stability in mice. It is filed as in vitro ADME. The following applies: mouse microsomes. As to the method:
as §1

A short description of the next series: Plasma stability in mice. As to conditions: mouse plasma. In kind it is in vitro ADME. As to the method:
as §1

[3] abbreviates: RdRp reaction 37°C, 60 minutes, duplicate, 30 minutes preincubation, 1% DMSO.
The mark [4] stands for this setting: compound at 25 µM, read-out: % inhib. (25 µM).
Where [5] appears, read: compound at 100 µM, read-out: % inhib. (100 µM).

A word on the IC50: it is the concentration that inhibits the measured activity by half. `CCCc1c(-c2ccc(O)c(O)c2)oc2cc(O)cc(O)c2c1=O` [(5b), 2-(3,4-dihydroxyphenyl)-5,7-dihydroxy-3-propyl-4H-chromen-4-one]: the midpoint of inhibition in series [1] (setting [3]), the IC50, lay at 8.8 ± 0.7 µM. Besides, the inhibition at 25 µM in series [1] (setting [4]) came out at 72%. The inhibition at 100 µM in series [1] (setting [5]) was determined as 98%. Besides, the “Kinetic solubility Sk” value in “Kinetic solubility” came to 13 µM.

As for `CCCCOc1c(-c2ccc(O)c(O)c2)oc2cc(O)cc(O)c2c1=O` [(9a), 3-butoxy-2-(3,4-dihydroxyphenyl)-5,7-dihydroxy-4H-chromen-4-one], in series [2], the “Microsomal stability in mice t1/2” value was above 1 h. For the same compound, the “Plasma stability in mice t1/2” value in the series “Plasma stability in mice” was above 2 h. The IC50 in series [1] (setting [3]) is 5.3 ± 1 µM. In addition, in series [1] (setting [4]), the inhibition at 25 µM is 52%. In addition, in series [1] (setting [5]), the inhibition at 100 µM came to 98%. Also, the “Kinetic solubility Sk” value in the series “Kinetic solubility” is listed as 156 µM.

`O=c1cc(/C=C/c2ccc(O)c(O)c2)oc2cccc(O)c12` [(18), (E)-2-(3,4-dihydroxystyryl)-5-hydroxy-4H-chromen-4-one]: inhibition in series [1] (setting [3]) was half-maximal at 7 ± 1.2 µM (IC50). For the same compound, in series [1] (setting [4]), the inhibition at 25 µM was found to be 54%. Further, in series [1] (setting [5]), the inhibition at 100 µM is 94%. In addition, the “Kinetic solubility Sk” value in the series “Kinetic solubility” is on record as below 1 µM.

In the case of `O=c1cc(C(CCCC(F)(F)F)c2ccc(O)c(O)c2)oc2cccc(O)c12` (stereo not shown) [(13d), 2-(1-(3,4-dihydroxyphenyl)-5,5,5-trifluoropentyl)-5-hydroxy-4H-chromen-4-one], the “IC50 (µM)” value in series [1] (setting [3]) is listed as “NO inhibition”. The inhibition at 25 µM in series [1] (setting [4]) was found to be 8%. In addition, in series [1] (setting [5]), the inhibition at 100 µM was 10%.

As to `CCCCC(c1ccc(O)c(O)c1)c1cc(=O)c2c(O)cccc2o1` (stereo not shown) [(13c), 2-(1-(3,4-dihydroxyphenyl)pentyl)-5-hydroxy-4H-chromen-4-one], the inhibition at 25 µM in series [1] (setting [4]) amounted to 16%. The inhibition at 100 µM in series [1] (setting [5]) came to 37%.

Turning to `O=c1cc(-c2ccc(O)c(O)c2)oc2cc(F)cc(O)c12` [reference compound], the inhibition at 25 µM in series [1] (read-out: % inhibition 25 µM) is 0%. The inhibition at 100 µM in series [1] (read-out: % inhibition 100 µM) was determined as 25%.

Regarding `CC(c1ccc(O)c(O)c1)c1cc(=O)c2c(O)cccc2o1` (stereo not shown) [(13b), 2-(1-(3,4-dihydroxyphenyl)ethyl)-5-hydroxy-4H-chromen-4-one], the “Microsomal stability in mice t1/2” value in series [2] was above 1 h. The “Plasma stability in mice t1/2” value in the series “Plasma stability in mice” was above 2 h. In series [1] (setting [3]), this compound showed an IC50 of 4.1 ± 1.4 µM. For the same compound, the inhibition at 25 µM in series [1] (setting [4]) was determined as 65%. The inhibition at 100 µM in series [1] (setting [5]) was determined as 100%. For the same compound, the “Kinetic solubility Sk” value in the series “Kinetic solubility” was found to be 165 µM.

Regarding `O=c1cc(-c2ccc(O)c(O)c2)oc2cc(O)cc(O)c12` [luteolin, reference compound], the “Microsomal stability in mice t1/2” value in series [2] was above 1 h. In addition, the “Plasma stability in mice t1/2” value in “Plasma stability in mice” is above 2 h. For the same compound, the “Kinetic solubility Sk” value in the series “Kinetic solubility” came to 21 µM.

As for `O=c1cc(-c2ccc3c(c2)OC(F)(F)O3)oc2cc(O)cc(O)c12` [reference compound], in series [1] (read-out: % inhibition 25 µM), the inhibition at 25 µM is 0%. For the same compound, the inhibition at 100 µM in series [1] (read-out: % inhibition 100 µM) stood at 51%.

Regarding `Cc1c(-c2ccc(O)c(O)c2)oc2cc(O)cc(O)c2c1=O` [(5a), 2-(3,4-dihydroxyphenyl)-5,7-dihydroxy-3-methyl-4H-chromen-4-one], the IC50 in series [1] (setting [3]) was determined as 4.3 ± 1.1 µM. In addition, the inhibition at 25 µM in series [1] (setting [4]) was determined as 94%. Further, the inhibition at 100 µM in series [1] (setting [5]) was 99%. Further, the “Kinetic solubility Sk” value in the series “Kinetic solubility” is recorded as 32 µM.

As to `O=c1c(O)c(-c2ccc(O)c(O)c2)oc2cc(O)cc(O)c12` [quercetin, reference compound], in series [2], the “Microsomal stability in mice t1/2” value was above 1 h. In “Plasma stability in mice”, the “Plasma stability in mice t1/2” value is 0.12 h. Also, the “Kinetic solubility Sk” value in the series “Kinetic solubility” was 16 µM.

Turning to `O=C(Nc1ccc(O)c(O)c1)c1cc(=O)c2c(O)cccc2o1` [(24a), N-(3,4-dihydroxyphenyl)-5-hydroxy-4-oxo-4H-chromen-2-carboxamide], the “Microsomal stability in mice t1/2” value in series [2] came to 1 h. In addition, the “Plasma stability in mice t1/2” value in “Plasma stability in mice” stood at 1.38 ± 0.217 h. Also, 7.1 ± 0.8 µM corresponded to half-maximal inhibition in series [1] (setting [3]) (IC50). For the same compound, the inhibition at 25 µM in series [1] (setting [4]) worked out at 80%. In series [1] (setting [5]), the inhibition at 100 µM turned out to be 100%. Further, the “Kinetic solubility Sk” value in the series “Kinetic solubility” is on record as 65 µM.

Take `O=c1c(OCCCO)c(-c2ccc(O)c(O)c2)oc2cc(O)cc(O)c12` [(9c), 2-(3,4-dihydroxyphenyl)-5,7-dihydroxy-3-(3-hydroxypropoxy)-4H-chromen-4-one]: the “Microsomal stability in mice t1/2” value in series [2] worked out at 1 h. Moreover, the “Plasma stability in mice t1/2” value in the series “Plasma stability in mice” is 1.5 h. The IC50 in series [1] (setting [3]) stood at 5.6 ± 0.1 µM. Moreover, the inhibition at 25 µM in series [1] (setting [4]) turned out to be 71%. For the same compound, the inhibition at 100 µM in series [1] (setting [5]) was determined as 95%. Besides, in the series “Kinetic solubility”, the “Kinetic solubility Sk” value amounted to 231 µM.

Regarding `O=c1cc(CCc2ccc(O)c(O)c2)oc2cccc(O)c12` [(20), 2-(3,4-dihydroxyphenethyl)-5-hydroxy-4H-chromen-4-one], the “Microsomal stability in mice t1/2” value in series [2] is above 1 h. In the series “Plasma stability in mice”, the “Plasma stability in mice t1/2” value is above 2 h. Also, it took 5.8 ± 0.7 µM to reach half-maximal inhibition in series [1] (setting [3]) (IC50). Besides, the inhibition at 25 µM in series [1] (setting [4]) came to 80%. Further, the inhibition at 100 µM in series [1] (setting [5]) was found to be 97%. Besides, in the series “Kinetic solubility”, the “Kinetic solubility Sk” value worked out at 67 µM.

As to `O=C(NCCNC(=S)Nc1ccc(O)c(O)c1)c1cc(=O)c2c(O)cccc2o1` [(31), N-(2-(3-(3,4-dihydroxyphenyl)thiourea)ethyl)-5-hydroxy-4-oxo-4H-chromen-2-carboxamide], the IC50 in series [1] (setting [3]) was found to be 3.4 ± 1.2 µM. Moreover, in series [1] (setting [4]), the inhibition at 25 µM was 86%. For the same compound, the inhibition at 100 µM in series [1] (setting [5]) amounted to 94%. Besides, the “Kinetic solubility Sk” value in “Kinetic solubility” is below 1 µM.

Consider `O=C(Oc1ccc(O)c(O)c1)c1cc(=O)c2c(O)cccc2o1` [(24b), 3,4-dihydroxyphenyl-5-hydroxy-4-oxo-4H-chromen-2-carboxylate], for which, in series [1] (setting [3]), the IC50 came out at 2 ± 1 µM. The inhibition at 25 µM in series [1] (setting [4]) was determined as 95%. Also, the inhibition at 100 µM in series [1] (setting [5]) was found to be 94%. Moreover, the “Kinetic solubility Sk” value in “Kinetic solubility” is recorded as below 1 µM.

As for `O=C(NCCNC(=O)c1cc(=O)c2c(O)cccc2o1)c1ccc(O)c(O)c1` [(28), N-(2-(3,4-dihydroxybenzamide)ethyl)-5-hydroxy-4-oxo-4H-chromen-2-carboxamide], half-maximal inhibition in series [1] (setting [3]) (IC50) was put at 15.9 ± 1.1 µM. The inhibition at 25 µM in series [1] (setting [4]) turned out to be 79%. The inhibition at 100 µM in series [1] (setting [5]) came to 100%.

`O=c1cc(Cc2ccc(O)c(O)c2)oc2cccc(O)c12` [(13a), 2-(3,4-dihydroxybenzyl)-5-hydroxy-4H-chromen-4-one]: in series [2], the “Microsomal stability in mice t1/2” value was above 1 h. For the same compound, the “Plasma stability in mice t1/2” value in “Plasma stability in mice” was above 2 h. In addition, in series [1] (setting [3]), the IC50 came out at 8.5 ± 0.7 µM. The inhibition at 25 µM in series [1] (setting [4]) turned out to be 78%. Moreover, the inhibition at 100 µM in series [1] (setting [5]) was 99%. The “Kinetic solubility Sk” value in “Kinetic solubility” is reported as 63 µM.

In the case of `O=c1c(OCCO)c(-c2ccc(O)c(O)c2)oc2cc(O)cc(O)c12` [(9b), 2-(3,4-dihydroxyphenyl)-5,7-dihydroxy-3-(2-hydroxyethoxy)-4H-chromen-4-one], the “Microsomal stability in mice t1/2” value in series [2] was above 1 h. Also, the “Plasma stability in mice t1/2” value in “Plasma stability in mice” was above 2 h. Also, in series [1] (setting [3]), 6.1 ± 1 µM corresponded to half-maximal inhibition (IC50). Also, the inhibition at 25 µM in series [1] (setting [4]) was determined as 83%. For the same compound, the inhibition at 100 µM in series [1] (setting [5]) was determined as 100%. Moreover, the “Kinetic solubility Sk” value in the series “Kinetic solubility” turned out to be 167 µM.

Turning to `COc1cccc2oc(-c3ccc(O)cc3C)cc(=O)c12` [reference compound], the inhibition at 25 µM in series [1] (read-out: % inhibition 25 µM) was 3%. In series [1] (read-out: % inhibition 100 µM), the inhibition at 100 µM turned out to be 34%.

Regarding `O=C(OCCc1ccc(O)c(O)c1)c1cc(=O)c2c(O)cccc2o1` [(24c), 3,4-dihydroxyphenethyl-5-hydroxy-4-oxo-4H-chromen-2-carboxylate], the IC50 in series [1] (setting [3]) was determined as 44.1 ± 1.1 µM. In series [1] (setting [4]), the inhibition at 25 µM is 36%. Also, the inhibition at 100 µM in series [1] (setting [5]) turned out to be 72%.
